Results: patent US20260076973A1 (priority 2023, published 2026)
Structures can show the parent of a compound that is named as a salt. Where two headings read alike, the source gives them in different places.

System: SARS-CoV-2 (WA1)
Test: microbe, parasite or virus in culture
Assay type: cell-based
[1] = Severe acute respiratory syndrome coronavirus 2, Vero C1008, VIRADEM compounds, SARS-CoV-2(WA1) CPE assay, Round 2, concentration range 1000-0.05 nM, Vero E6, read-out: IC50
[2] = VIRADEM compounds, SARS-CoV-2(WA1) CPE assay, Round 2, concentration range 1000-0.05 nM, Vero E6, read-out: IC50
[3] = Severe acute respiratory syndrome coronavirus 2, Vero C1008

| SMILES | IC50 [1] [µM] | other results |
| --- | --- | --- |
| Cc1ccc(N2C(N3CCOCC3)=NC(N)=NC2Nc2cccc(F)c2)cc1 (centres unmarked) [VIRADEM-11785, N-(3-Fluorophenyl)-6-morpholin-4-yl-N^1-p-tolyl-[1,3,5]triazine-2,4-diamine hydrochloride] | 0.17 |  |
| Cc1cccc(N2C(N3CCOCC3)=NC(N)=NC2Nc2cccc(F)c2)c1 (centres unmarked) [VIRADEM-11786, N-(3-Fluorophenyl)-6-morpholin-4-yl-N^1-m-tolyl-[1,3,5]triazine-2,4-diamine hydrochloride] | 0.38 |  |
| Cc1cccc(N2C(N3CCOCC3)=NC(N)=NC2Nc2ccc(F)cc2)c1 (centres unmarked) [VIRADEM-11787, N-(4-Fluorophenyl)-6-morpholin-4-yl-N^1-m-tolyl-[1,3,5]triazine-2,4-diamine hydrochloride] | 0.36 |  |
| CCOc1ccc(NC2N=C(N)N=C(N3CCOCC3)N2c2cccc(C)c2)cc1 (centres unmarked) [VIRADEM-11794, N-(4-Ethoxyphenyl)-6-morpholin-4-yl-N^1-m-tolyl-[1,3,5]triazine-2,4-diamine hydrochloride] | 0.27 |  |
| Cc1ccc(NC2N=C(N)N=C(N3CCCC3)N2c2ccc(F)cc2)cc1C (centres unmarked) [VIRADEM-11809, N-(3,4-Dimethylphenyl)-N^1-(4-fluorophenyl)-6-pyrrolidin-1-yl-[1,3,5]triazine-2,4-diamine hydrochloride] | > 1 |  |
| CC(=O)c1cccc(Nc2nc(Nc3ccc(Cl)cc3)nc(N3CCOCC3)n2)c1 [VIRADEM-11882, 1-{3-[4-(4-chlorophenylamino)-6-morpholin-4-yl-[1,3,5]triazin-2-ylamino]-phenyl}-ethanone] | 0.12 |  |
| CC(=O)c1cccc(Nc2nc(Nc3ccc(F)cc3)nc(N3CCOCC3)n2)c1 [VIRADEM-11883, 1-{3-[4-(4-Fluorophenylamino)-6-morpholin-4-yl-[1,3,5]triazin-2-ylamino]-phenyl}-ethanone hydrochloride] | > 1 |  |
| CCOC(=O)c1ccc(Nc2nc(Nc3ccc(C)c(C)c3)nc(N3CCOCC3)n2)cc1 [VIRADEM-11913, 4-[4-(3,4-Dimethylphenylamino)-6-morpholin-4-yl-[1,3,5]-2-ylamino]-benzoic acid ethyl ester] |  | IC50 [2]: 0.04 µM |
| Cc1ccc(Nc2nc(Nc3cccc(C(F)(F)F)c3)nc(N3CCOCC3)n2)cc1C [VIRADEM-11914, N-(3,4-Dimethylphenyl)-6-morpholin-4-yl-N^1-(3-trifluoromethylphenyl)-[1,3,5]triazine-2,4-diamine] |  | IC50 [3]: 0.13 µM |
| CCCCc1ccc(Nc2nc(Nc3cccc(C(C)=O)c3)nc(N3CCOCC3)n2)cc1 [VIRADEM-12037, 1-{3-[4-(4-Butylphenylamino)-6-morpholin-4-yl-[1,3,5]triazin-2-ylamino]-phenyl}-ethanone] | > 1 |  |
| CCOc1cccc(N2C(N3CCCC3)=NC(N)=NC2Nc2ccc(C)c(C)c2)c1 (centres unmarked) [VIRADEM-12185, N-(3,4-Dimethylphenyl)-N^1-(3-ethoxyphenyl)-6-pyrrolidin-1-yl-[1,3,5]triazine-2,4-diamine hydrochloride] | > 1 |  |
| CC(=O)c1cccc(Nc2nc(Nc3cccc(Cl)c3)nc(N3CCOCC3)n2)c1 [VIRADEM-12188, 1-{3-[4-(3-Chlorophenylamino)-6-morpholin-4-yl-[1,3,5]triazin-2-ylamino]-phenyl}-ethanone] | 0.32 |  |
| Cc1cccc(Nc2nc(Nc3ccc(C(C)C)cc3)nc(N3CCOCC3)n2)c1 [VIRADEM-12251, N-(4-Isoproylphenyl)-6-morpholin-4-yl-N^1-m-tolyl-[1,3,5]triazine-2,4-diamine hydrochloride] |  | IC50 [2]: 0.56 µM |
| COc1cccc(NC2N=C(N)N=C(N3CCOCC3)N2c2ccccc2)c1 (centres unmarked) [VIRADEM-12252, N-(3-Methoxyphenyl)-6-morpholin-4-yl-N^1-phenyl-[1,3,5]triazine-2,4-diamine hydrochloride] | 0.11 |  |
| Cc1ccc(Nc2nc(Nc3ccc(C(C)C)cc3)nc(N3CCOCC3)n2)cc1 [VIRADEM-12253, N-(4-Isoproylphenyl)-6-morpholin-4-yl-N^1-p-tolyl-[1,3,5]triazine-2,4-diamine hydrochloride] |  | IC50 [2]: 0.51 µM |
| COc1ccccc1N1C(N2CCOCC2)=NC(N)=NC1Nc1cc(C)cc(C)c1 (centres unmarked) [VIRADEM-12270, N-(3,5-Dimethylphenyl)-N^1-(2-methoxyphenyl)-6-morpholin-4-yl-[1,3,5]triazine-2,4-diamine hydrochloride] | 0.38 |  |
| Cc1cc(C)cc(N2C(N3CCCC3)=NC(N)=NC2Nc2cccc(Cl)c2)c1 (centres unmarked) [VIRADEM-12278, N-(3-Chlorophenyl)-N^1-(3,5-dimethylphenyl)-6-pyrrolidin-1-yl-[1,3,5]triazine-2,4-diamine hydrochloride] | > 1 |  |
| Cc1ccc(Nc2nc(Nc3cccc(F)c3)nc(N3CCOCC3)n2)cc1Cl [VIRADEM-12292, N-(3-Chloro-4-methylphenyl)-N^1-(3-fluorophenyl)-6-morpholin-4-yl-[1,3,5]triazine-2,4-diamine] |  | IC50 [3]: 0.15 µM |
| CC(=O)c1cccc(Nc2nc(Nc3ccc(C(C)C)cc3)nc(N3CCOCC3)n2)c1 [VIRADEM-12305, 1-{3-[4-(4-Isopropylphenylamino)-6-morpholin-4-yl-[1,3,5]triazin-2-ylamino]-phenyl}-ethanone] | 0.45 |  |
| CC(C)c1ccc(Nc2nc(N3CCCC3)nc(N3CCCC3)n2)cc1 [VIRADEM-12307, (4,6-Dipyrrolidin-1-yl-[1,3,5]triazin-2-yl)-(4-isopropylphenyl)-amine hydrochloride] | > 1 |  |
| CCc1ccc(Nc2nc(Nc3cc(Cl)cc(Cl)c3)nc(N3CCOCC3)n2)cc1 [VIRADEM-12327, N-(3,5-Dichlorophenyl)-N^1-(4-ethylphenyl)-6-morpholin-4-yl-[1,3,5]triazine-2,4-diamine] | 0.73 |  |

| SMILES | IC50 [1] [µM] | other results |
| --- | --- | --- |
| COC(=O)c1ccc(Nc2nc(Nc3cccc(OC)c3)nc(N3CCOCC3)n2)cc1 [VIRADEM-12329, 4-[4-(3-Methoxyphenylamino)-6-morpholin-4-yl-[1,3,5]triazin-2-ylamino]-benzoic acid methyl ester] | 0.02 |  |
| Cc1ccccc1Nc1nc(N2CCOCC2)nc(N2CCOCC2)n1 [VIRADEM-12434, (4,6-Dimorpholin-4-yl-[1,3,5]triazin-2-yl)-o-tolyl-amine] | > 1 |  |
| CC(C)c1ccc(Nc2nc(N3CCOCC3)nc(N3CCOCC3)n2)cc1 [VIRADEM-12435, (4,6-Dimorpholin-4-yl-[1,3,5]triazin-2-yl)-(4-isopropylphenyl)-amine] | > 1 |  |
| CC(C)(C)c1nnc(N2CCOCC2)nc1Nc1ccccc1 [VIRADEM-13044, (6-tert-Butyl-3-morpholin-4-yl-[1,2,4]triazin-5-yl)-phenyl-amine] | > 1 |  |
| COc1ccc(CC(=O)N(N)c2nc(N3CCOCC3)nc(N3CCOCC3)n2)cc1 [VIRADEM-14302, (4-Methoxyphenyl)-acetic acid N1-(4,6-dimorpholin-4-yl-[1,3,5]triazin-2-yl)-hydrazide] | > 1 |  |
| Clc1ccccc1Nc1nc(Nc2ccccc2Cl)nc(N2CCOCC2)n1 [VIRADEM-14303, N,N^1-bis-(2-chlorophenyl)-6-morpholin-4-yl-[1,3,5]triazine-2,4-diamine] |  | IC50 [3]: > 1 µM |
| C1CCC(Nc2nc(N3CCOCC3)nc(N3CCOCC3)n2)C1 [VIRADEM-14309, Cyclopentyl-(4,6-dimorpholin-4-yl-[1,3,5]triazin-2-yl)-amine] | > 1 |  |
| Clc1ccc(Oc2nc(N3CCOCC3)nc(N3CCOCC3)n2)cc1 [VIRADEM-15106, 2-(4-Chlorophenoxy)-4,6-dimorpholin-4-yl-[1,3,5]triazine] | > 1 |  |
| Cc1ccc(Nc2nc(N3CCOCC3)nc(N(C)c3ccccc3)n2)cc1C [VIRADEM-15168, N-(3,4-Dimethylphenyl)-N^1-methyl-6-morpholin-4-yl-N^1-phenyl-[1,3,5]triazine-2,4-diamine] |  | IC50 [2]: 0.18 µM |
| c1ccc(CN2CCN(c3nc(N4CCOCC4)nc(N4CCOCC4)n3)CC2)cc1 [VIRADEM-15199, 2-(4-Benzylpiperazin-1-yl)-4,6-dimorpholin-4-yl-[1,3,5]triazine] | > 1 |  |
| c1cc2c(cc1CNc1nc(N3CCOCC3)nc(N3CCOCC3)n1)OCO2 [VIRADEM-15201, Benzo[1,3]dioxol-5-ylmethyl-(4,6-dimorpholin-4-yl-[1,3,5]triazin-2-yl)-amine] | > 1 |  |
| c1ccc(CNc2nc(N3CCOCC3)nc(N3CCOCC3)n2)cc1 [VIRADEM-15209, Benzyl-(4,6-dimorpholin-4-yl-[1,3,5]triazin-2-yl)-amine] | > 1 |  |
| COc1ccc(Nc2nc(N3CCOCC3)nc(N3CCC(C)CC3)n2)cc1 [VIRADEM-15220, (4-Methoxyphenyl)-[4-(4-methylpiperidin-1-yl)-6-morpholin-4-yl-[1,3,5]triazin-2-yl]amine] | > 1 |  |
| Cc1ccc(Nc2nc(N3CCCCCC3)nc(N3CCOCC3)n2)cc1 [VIRADEM-15229, (4-Azepan-1-yl-6-morpholin-4-yl-[1,3,5]triazin-2-yl)-p-tolyl-amine] | 0.85 |  |
| c1ccc(CCNc2nc(N3CCOCC3)nc(N3CCOCC3)n2)cc1 [VIRADEM-15230, (4,6-Dimorpholin-4-yl-[1,3,5]triazin-2-yl)-phenetylamine] |  | IC50 [2]: 0.46 µM |
| Cc1ccc(Nc2nc(N3CCOCC3)nc(N3CCC(C)CC3)n2)cc1C [VIRADEM-15231, (3,4-Dimethylphenyl)-[4-(4-methylpiperidin-1-yl)-6-morpholin-4-yl-[1,3,5]triazin-2-yl]-amine] | 0.35 |  |
| c1coc(CNc2nc(N3CCOCC3)nc(N3CCOCC3)n2)c1 [VIRADEM-15234, (4,6-Dimorpholin-4-yl-[1,3,5]triazin-2-yl)-furan-2-ylmethylamine] | > 1 |  |
| COc1ccc(CCNc2nc(N3CCOCC3)nc(N3CCOCC3)n2)cc1OC [VIRADEM-15243, [2-(3,4-Dimethoxyphenyl)-ethyl]-(4,6-dimorpholin-4-yl-[1,3,5]triazin-2-yl)-amine] | > 1 |  |
| CCc1cccc(Nc2nc(N3CCOCC3)nc(N3CCOCC3)n2)c1 [VIRADEM-15248, (4,6-Dimorpholin-4-yl-[1,3,5]triazin-2-yl)-(3-ethylphenyl)-amine] | > 1 |  |
| COc1ccc(Nc2nc(Nc3cccc4ccccc34)nc(N3CCOCC3)n2)cc1 [VIRADEM-15262, N-(4-Methoxyphenyl)-6-morpholin-4-yl-N^1-naphthalen-[1,3,5]triazine-2,4-diamine] |  | IC50 [2]: 0.44 µM |
